The numbers were not newly measured in US20190374461A1, “Treatment apparatus and mechanisms for an infected nail” (priority 2018, published 2019), which cites them from elsewhere.

Where “and” joins values, the source holds several entries; their conditions need not be identical. Equal values may be shown once. Where a name gives a salt, the structure may show the parent alone. Read-outs that look alike come from different tables or passages of the source.

This series has as its system nail infections.

As to `CC[C@@H]([C@H](C)O)n1ncn(-c2ccc(N3CCN(c4ccc(OC[C@@H]5CO[C@@](Cn6cncn6)(c6ccc(F)cc6F)C5)cc4)CC3)cc2)c1=O` [Posaconazole], the “side effects compared with Lamisil” value (oral treatment) is reported as “prone to fewer side effects than Lamisil”.

On to `C=C1CCN([C@H](C)[C@](O)(Cn2cncn2)c2ccc(F)cc2F)CC1` [efinaconazole], for which the cure rates (topical, only mild infections not involving the nail bed) was 17.8% and 15.2%.

In the case of `C[C@@H](n1cnc2cc(Cl)ccc2c1=O)[C@](O)(Cn1cncn1)c1ccc(F)cc1F` [Albaconazole], where the note is “in vivo, po”, the “side effects compared with Lamisil” value is reported as “prone to fewer side effects than Lamisil”.

As to `CCC(C)(C)c1ccc(CC(C)CN2C[C@@H](C)O[C@@H](C)C2)cc1` (some centres unmarked) [Amorolfine, amorolfine], the cure rates (topical, mild nail infections without nail matrix involvement) is reported as 40 to 55%. Further, the “effectiveness against severe nail infections” value (topical, severe nail infections involving the nail bed) was “not effective”.

On to `Cc1cc(C2CCCCC2)n(O)c(=O)c1` [Ciclopirox, ciclopirox], for which the cure rate result (topical, 8% strength) is “about 8.5%”.

In the case of `CN(C/C=C/C#CC(C)(C)C)Cc1cccc2ccccc12` [Lamisil, terbinafine hydrochloride], where the note is “oral treatment of nail infections”, the mycological cure rate was 46%.

Regarding `OB1OCc2cc(F)ccc21` [Tavaborole, tavaborole], the “complete cure, share of patients” value (topical, 600 patients in the study) is listed as 6%.
